Patent US20120270770A1, “Anti-angiogenic peptides and their uses” (priority 2010, published 2012)

Tests used:
[1] = test system: Feline Immunodeficiency virus FIV; assay: Treatment of a lion infected with FIV; type: in vivo; conditions: weekly 70 mg I.M injections
Excerpt: Nasty is a male lion in North Carolina Zoological Park. He was diagnosed to suffer Feline Immunodeficiency virus FIV. FIV attacks the immune system of cats, much like the human immunodeficiency virus (HIV) attacks the immune system of human beings. FIV infects many cell types in its host, including CD4+ and CD8+ T lymphocytes, B lymphocytes, and macrophages. FIV eventually leads to debilitation of the immune system in its feline hosts by the infection and exhaustion of T-helper (CD4+) cells.
Nasty was treated weekly with 70 mg I.M injections of JC15-10N. […] It can be seen that starting of peptide treatment stabilized the CD4+ cell counts.

[2] = test system: Stage IV pancreatic cancer; assay: Treatment of a patient with Stage IV pancreatic cancer; type: in vivo, human; conditions: one patient
Experimental: A diabetic since 12/01 was diagnosed with Stage IV pancreatic cancer in May 2002 with metastatic diseases in their liver. Median survival time of patients with Stage IV pancreatic cancer is 4.5 months. Median survival time of patients with Stage IV pancreatic cancer when treated with gemcitabine is 4.8 months. The longest anyone lived on gemcitabine treatment has been 19 months.
The patient of this case started JC15-10N peptide treatment on August 2002. The patient was given 0.5 mg/kg peptide sub-cutaneously. The patient weighted 128 lbs. and therefore they received 29 mg/injection per week. […] After receiving the peptide for more than 19 months, the patient was doing fine. The patient passed away from unrelated causes on July 2004.

[3] = test system: ulcerative colitis / IBD and subsequent colon cancer in IL-10 deficient mice; assay: Murine model of ulcerative colitis: IL-10 deficient mice; type: in vivo, mouse
Excerpt: An IL-10 deficient strain of mouse was used in the study to determine the ability of JC15-10N (a novel anti-inflammatory molecule) to limit their developing IBD and subsequent colon cancer.
The Wild Type and IL-10 deficient mouse strains used in this study was obtained from Jackson Laboratories and are designated as:
The following groups of animals comprised the present experiment:
Controls: • 1. Controls (129 SvEv 129^−/− untreated) • 2. Controls (129 SvEv 129^−/− Sham/Saline Only) • 3. 129 SvEv Wild-type Controls (untreated) • 4. 129 SvEv Wild-type (Sham/Saline Only)
Treatments with JC15-10N: • 1. Pre-inflammatory (129 SvEv 129^−/−-Prevention-1 injection/week) • 2. Frank inflammatory (129 SvEv 129^−/−-Treatment-1 injection/week) • 3. Pre-inflammatory (129 SvEv 129^−/−-Prevention-1* injections/week) • 4. Frank-inflammatory (129 SvEv 129^−/−-Treatment-1* injections/week) • 5. 129 SvEv Wild-type (Prevention-1 injection/week) • 6. 129 SvEv Wild-type (Treatment-1 injection/week) • 7. 129 SvEv Wild-type (Prevention-1* injections/week) • 8. 129 SvEv Wild-type (Treatment-1* injections/week) • 9 animals/group X 12 groups (including controls)=108 mice×2 repetitions=216 mice; 1 injection/week=0.5 mg/kg subQ and 1* injection/week=5.0 mg/kg subQ injection/week. • In order to encourage inflammation, prior to the start of the experiment, pathogenic murine strains of E. coli and E. faecalis bacteria were administered to the mice in the appropriate treatment groups via oral and anal gavages, designated EC/EF.
Pre-inflammatory (4 wks.) and frank-inflammatory animals (6 wks.-8 wks) were treated with JC15-10N via subcutaneous injections every week for 14 weeks. The compound was diluted in saline to obtain treatment doses of 0.5 and 5.0 mg/kg of body weight respectively and was delivered subcutaneously using tuberculin needles. As controls, some animals were injected with saline only or remained uninjected during the course of the experiment. The procedure described by Hem and coworkers (Laboratory Animals Ltd. 1998. V 32. 364-368) was used to collect 100 micro-liters of blood from the lateral saphenous vein of all test animals once per week over the 14 weeks of peptide therapy. Blood serum was analyzed for changes in the levels of pro-inflammatory and anti-inflammatory cytokines over the 14-week treatment period. At the end of the 14-week treatment period animals were euthanized using a CO2 chamber and flushing the peritoneum with PBS will collect peritoneal lavage fluid. Colons were removed and flushed separately with PBS. Cytokine levels in the peritoneal lavage fluids and colonic fluids of all animals were compared. Following colonic flushes; colons were splayed and examined for inflammatory lesions. Lesions were excised with scissors and the remainder of the colon rolled into gut rolls. […]

[4] = treated IL-10−/− mice vs control IL-10−/− receiving no treatment

FAKKFAKKFK [JC15-10N]
absolute CD4+ cell counts [1]: stabilized
absolute CD8+ cell counts [1]: prevented the decrease
weight of the lion [1]: began to rise immediately
need for diabetic medication (indicating primary tumor regressing) ([2]; 0.5 mg/kg sub-cutaneously per week): required no more diabetic medication
metastatic disease in the liver ([2]; 0.5 mg/kg sub-cutaneously, 29 mg/injection per week): diminished significantly
time on peptide with the patient doing fine ([2]; Stage IV pancreatic cancer, 0.5 mg/kg sub-cutaneously per week): more than 19 months
protective effect in IL-10 deficient mice ([3]; 0.5 and 5.0 mg/kg subQ weekly, 14 weeks, preliminary data, 0.5 mg/kg somewhat better than 5.0 mg/kg): profound protective effect
colitis [3, 4]: significant reduction
presence of advanced disease [3, 4]: significant reduction
subsequent development of colon cancer [3, 4]: significant reduction
